This experiment concerns the target Aldo-keto reductase family 1 member B1 (Rattus norvegicus, UniProt P07943). Put plainly: Inhibition of Rattus norvegicus (rat) lens aldose reductase.

SMILES strings stand for the structures.

As usually defined, the IC50 is the concentration that gives 50% inhibition. A high value points to weaker potency in that assay. As for `O=C1CC(O)C1=O` (centres undefined), the IC50 was 19.1 µM. The result for `COc1cc2c(c(O)c1C)COC(C)C2` (centres undefined) [6-METHOXY-3,7-DIMETHYLISOCHROMAN-8-OL] reads 33.1 µM; that for `CCCC/C=C/CCCCCCCCCC1=C(OC)C(=O)C=C(OC)C1=O`, 55 µM; that for `C[C@@H](C(=O)O)C1Cc2c(cc3c(c2O)C(=O)NC3=O)O1` (some centres undefined), 5.37 µM. Take `O=C(/C=C/c1ccc(O)c(O)c1)O[C@H](Cc1ccc(O)c(O)c1)C(=O)O` [ROSMARINIC ACID]: the IC50 is 3.89 µM. Turning to `CC1(C)C2CC[C@]3(C)C(CC=C4C5C[C@](C)(C(=O)O)C[C@@H](O)[C@]5(C)CC[C@]43C)[C@@]2(C)CC[C@@H]1O` (some centres undefined), the IC50 was 55 µM.

`COc1cc([C@H]2O[C@@H](c3ccc(O)c(OC)c3)[C@@H](C)[C@H]2C)ccc1O` [TETRAHYDROFUROGUAIACIN B] had a half-inhibitory concentration (IC50) of 21.4 µM. As for `CC1(C)CC2C1CC[C@@]1(C)C[C@]2(O)CC[C@@H]1O` (some centres undefined), the IC50 is 44.7 µM.

On to `CC(=O)c1c(O)cc(O)cc1O[C@@H]1OC(COC(=O)c2cc(O)c(O)c(O)c2)[C@H](O)[C@H](O)[C@@H]1O` (some centres undefined), for which the IC50 was 28.8 µM. The result for `O=C(/C=C/c1ccc(O)c2c1[C@H](C(=O)O[C@@H](Cc1ccc(O)c(O)c1)C(=O)O)[C@@H](c1ccc(O)c(O)c1)O2)O[C@H](Cc1ccc(O)c(O)c1)C(=O)O` reads 2.63 µM; that for `CC(C)c1ccc2c(c1)CCC1[C@@](C)(C(=O)O)CCC[C@]21C` (some centres undefined), 35.5 µM; that for `Cc1cc(C(=O)O)c(O)c2c1[C@H](C)[C@@H](C)OC2`, 12 µM. Consider `CC(=O)C[C@@]1(O)C(=O)C2=C(OC[C@@H]2C)c2ccc3c(c21)CCCC3(C)C`, for which inhibition was half-maximal at 1.74 µM (IC50). The result for `COc1cc([C@H]2O[C@@H](c3ccc(O)c(OC)c3)[C@H](C)[C@@H]2C)ccc1O` [NECTANDRIN B] reads 38 µM. Consider `CCOC(=O)C1Cc2c(oc(=O)c3cc(O)c(O)c(O)c23)C1=O` (centres undefined), for which the IC50 is 5.01 µM. The compound `O=C(/C=C/c1ccc(O[C@@H](C(=O)O)[C@@H](O)c2ccc(O)c(O)c2)c(O)c1)O[C@H](Cc1ccc(O)c(O)c1)C(=O)O` had an IC50 of 2.82 µM. The result for `O=CC(O)C(O)(Oc1ccc(/C=C/C(=O)O[C@H](Cc2ccc(O)c(O)c2)C(=O)O)cc1O)C(O)C(O)CO` (some centres undefined) reads 3.16 µM; that for `Cc1coc2c1C(=O)C(=O)c1c-2ccc2c(C)cccc12` [TANSHINONE I], 10 µM. The compound `CC(C(=O)O)N1Cc2c(cc3c(c2O)CC([C@@H](C)C(=O)O)O3)C1=O` (some centres undefined) gave a concentration for half-maximal inhibition (IC50) of 4.47 µM. The figure for `CC1(C)C2CC[C@]3(C)C(CC=C4C5C[C@](C)(C(=O)O)C[C@H](O)[C@]5(C)CC[C@]43C)[C@@]2(C)CC[C@@H]1O` (some centres undefined) is 75.9 µM. For the compound `C[C@@H](C(=O)O)C1Cc2c(cc3c(c2O)CN(CC(=O)O)C3=O)O1` (some centres undefined), half-maximal inhibition (IC50) was put at 1.26 µM. Take `COC(=O)c1cc2cc3cc4cc(CC(=O)O)c(C(=O)/C=C(\O)c5ccccc5O)c(OC)c4c(OC)c3c(O)c2c(=O)o1`: inhibition was half-maximal at 0.00129 µM (IC50). As for `C[C@@H](C(=O)O)C1Cc2c(cc3c(c2O)C(=O)N(CC(=O)O)C3=O)O1` (some centres undefined), the 50% inhibitory concentration (IC50) was 0.447 µM. Turning to `C[C@H]1COC2=C1C(=O)C(=O)c1c2ccc2c1CCCC2(C)C` [CRYPTOTANSHINONE], the IC50 was 4.79 µM. The result for `O=C1C(O)=CC(=O)c2c(O)cc(O)cc21` [FLAVIOLIN] reads 43.7 µM; that for `COc1cc2c(c(OC)c1OC)-c1c(cc(O)c(OC)c1OC)C[C@H](C)[C@H](C)[C@H]2O`, 38 µM; that for `COc1cc2c(c(OC)c1C)COC(C)C2` (centres undefined) [6,8-DIMETHOXY-3,7-DIMETHYLISOCHROMAN], 100 µM. `C=C(C)[C@@H]1CC=C(COC2OC(CO)[C@H](O)[C@@H](O)[C@@H]2O)CC1` (some centres undefined): the IC50 is 14.5 µM.

The compound `COc1cc(C(=O)/C(C)=C(/C)C(=O)c2ccc(O)c(OC)c2)ccc1O` had a concentration for half-maximal inhibition (IC50) of 100 µM. In turn, `COc1cc([C@H]2O[C@H](c3ccc(O)c(OC)c3)[C@@H](C)[C@H]2C)ccc1O` showed an IC50 of 25.1 µM. `COc1cc(/C=C(/C)[C@H](C)Cc2ccc(O)c(OC)c2)ccc1O`: half-maximal inhibition (IC50) required 35.5 µM. In turn, `CC1(C)C[C@H](O)[C@]23CC[C@@H](O)[C@](C)(CCC12)C3` (some centres undefined) showed an IC50 of 95.5 µM.

In turn, `COc1cc2c(=O)oc3c(O)c(O)cc4c(=O)oc(c1O)c2c34` showed an IC50 of 10 µM. `C=C(C)C1CCC(CO[C@H]2OC(CO)C(O)[C@H](O)[C@@H]2O)CC1` (some centres undefined) had a concentration for half-maximal inhibition (IC50) of 46.8 µM. The compound `CC(=O)O[C@H]1C[C@]2(CO)C3CC[C@@]4(C)C(C(=O)CC(=O)[C@@H]4C)[C@]3(C)CC[C@@]2(C)C2CC(C)(C)CC[C@@]21C` (some centres undefined) had a concentration for half-maximal inhibition (IC50) of 47.9 µM. For `CNC(=O)Oc1c(C)c(OC)cc2c1COC(C)C2` (centres undefined), the IC50 was 34.7 µM. `O=Cc1ccc(CO)o1` [AES-103] gave an IC50 of 182 µM. `C=C(C)[C@@H]1CC=C(COC2OC(CO)[C@H](O)[C@H](O)[C@H]2O)CC1` (some centres undefined): the midpoint of inhibition, the IC50, lay at 55 µM. The figure for `CC(C)c1ccc2c(c1)CCC1[C@@](C)(CO)CCC[C@]21C` (some centres undefined) is 38.9 µM.

As for `CC(C(=O)O)N1C(=O)c2cc3c(c(O)c2C1=O)CC([C@@H](C)C(=O)O)O3` (some centres undefined), the IC50 was 2 µM.

`C=C(C)C1CCC(COC2O[C@H](CO)[C@H](O)[C@@H](O)C2O)CC1` (some centres undefined) showed an IC50 of 28.2 µM.

For `CC(CCC(=O)O)N1Cc2c(cc3c(c2O)CC([C@@H](C)C(=O)O)O3)C1=O` (some centres undefined), it took 12 µM to reach half-maximal inhibition (IC50). Compound `O=C(O)C1Cc2c(oc(=O)c3cc(O)c(O)c(O)c23)C1=O` (centres undefined) had a half-maximal inhibitory concentration (IC50) of 2.4 µM. As to `CCOc1ccc(C(=O)/C(C)=C(/C)C(=O)c2ccc(O)c(OC)c2)cc1OC`, half-maximal inhibition (IC50) required 34.7 µM. Consider `O=C(/C=C/c1ccc(O)c(O)c1)OC1C[C@](O)(C(=O)O)C[C@H](O)[C@@H]1O` (some centres undefined), for which half-maximal inhibition (IC50) was put at 1.82 µM.

For the compound `Cc1cccc2c3c(ccc12)C(=O)C(C(C)CO)=C(O)C3=O` (centres undefined) [DANSHENXINKUN A], it took 0.871 µM to reach half-maximal inhibition (IC50). Compound `Cc1cccc2c3c(ccc12)C1=C(C(=O)C3=O)[C@@H](C)CO1` [DIHYDROTANSHINONE I] showed an IC50 of 1.2 µM.

On to `CC(=O)C1=C(O)C2=CO[C@H](C)[C@@H](C)C2=C(C)C1=O`, for which the midpoint of inhibition, the IC50, lay at 8.71 µM. `CC(=O)C[C@@]1(O)C(=O)C2=C(OC[C@@H]2C)c2ccc3c(C)cccc3c21` had an IC50 of 0.1 µM.
